Test results taken from US8791163B2 (McGill University, priority 2006, dated 2014).
“And” between values parts separate entries of the source, which are not always exact repeats. Equal values may be shown once.

Assays:
[1] = biological target: T1, cloned human MT2 receptors (Homo sapiens, UniProt P49286); assay: [35S]GTPγS binding assay, NIH3T3 cells expressing human MT2; assay type: biochemical; conditions: maximal net effect relative to MLT
T1 construct: expressed in transfected cells
T1 sequence (P49286 1-362): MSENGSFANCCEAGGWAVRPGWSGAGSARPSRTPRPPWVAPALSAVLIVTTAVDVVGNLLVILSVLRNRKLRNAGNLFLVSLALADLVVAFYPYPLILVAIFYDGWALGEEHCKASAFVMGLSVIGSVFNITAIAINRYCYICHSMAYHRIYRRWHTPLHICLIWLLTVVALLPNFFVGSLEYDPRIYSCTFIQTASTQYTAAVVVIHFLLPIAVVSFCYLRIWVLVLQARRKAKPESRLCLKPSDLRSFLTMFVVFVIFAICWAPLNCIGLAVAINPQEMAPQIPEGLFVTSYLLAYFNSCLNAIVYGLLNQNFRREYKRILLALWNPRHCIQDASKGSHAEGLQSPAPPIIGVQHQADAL

[2] = biological target: T2, cloned human MT1 receptors (Homo sapiens, UniProt P48039); assay: [35S]GTPγS binding assay, NIH3T3 cells expressing human MT1; assay type: biochemical
T2 construct: expressed in transfected cells
T2 sequence (P48039 whole entry): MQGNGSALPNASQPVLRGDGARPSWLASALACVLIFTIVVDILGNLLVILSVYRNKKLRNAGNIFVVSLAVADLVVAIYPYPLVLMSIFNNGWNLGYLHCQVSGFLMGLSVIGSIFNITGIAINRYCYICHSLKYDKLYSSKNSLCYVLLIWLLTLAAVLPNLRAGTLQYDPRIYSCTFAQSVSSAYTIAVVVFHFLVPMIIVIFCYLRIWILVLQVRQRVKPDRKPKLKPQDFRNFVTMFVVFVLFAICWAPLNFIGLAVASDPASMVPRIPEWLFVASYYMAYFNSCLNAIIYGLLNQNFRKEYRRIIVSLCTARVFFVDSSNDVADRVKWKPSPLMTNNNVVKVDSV

[3] = test system: Sprague Dawley rats; assay: Novelty-Induced Suppressed Feeding (NSF) Test; assay type: in vivo, rat; conditions: for Latency (sec) to feed: 60 min before the test
Experimental: The NSF test is used to assess the anti-anxiety effect of a drug [Bodnoff et al. Psychopharmacology 1988, 95(3), 298-307]. Sprague Dawley rats were used in the NSF test. The testing apparatus comprises a brightly lit open area covered with lab chow pellets. Forty-eight hours prior to behavioral testing, all food was removed from the apparatus. Animals treated with compound 5b (40 or 80 mg/kg) were injected 60 min before the test, whereas animals treated with vehicle (DMSO/saline 7:3) or diazepam were injected 45 min before the test. The drugs were administered subcutaneously and the experiments were conducted after 5:30 PM. The latency to feed, defined as chewing the food as opposed to merely sniffing or playing with a pellet, was then recorded (Table 6). The experiment was terminated for those animals that had not begun eating within a period of 360 seconds, which animals were assigned a latency score of 360 seconds. All analyses were conducted using Sigma Stats and SPSS software. The results are expressed as the mean±SEM per n (number) animals tested (*, p<0.01, ANOVA or t test).

[4] = test system: dorsal raphe 5-HT neurons; assay: In vivo electrophysiological recording of 5-HT firing activity; parameters: species or system rat
Description: Serotonin (5-HT) neurons are implicated in the regulation of mood (for a review see Gobbi G, (2005) Inter. Rev. Neurobiology 65: 249-271). The increase in serotonergic neurotransmission is linked to the action of antidepressant drugs. For example fluoxetine (Prozac) increases the 5-HT availability by blocking its […]; mirtazapine (Remeron) increases 5-HT firing activity via an indirect alpha-2 receptor blockade. Consequently, in order to test if compound 5b increases the 5-HT firing activity, in vivo 5-HT neuron activity was recorded after single (40 or 80 mg/kg, subcutaneous) and repeated injections with compound 5b (40 mg/kg, i.p. once a day, for 4 days). For animals treated with a single injection (acute) the recording was done immediately following the injection. For animals treated with repeated injection (sub-chronic) the recording was done 24 hours after the last injection (FIG. 6).
Rats (Sprague-Dawley) were anesthetized with chloral hydrate (400 mg/kg i.p.) and placed in a stereotaxic frame (David Kopf Instruments) with the skull positioned horizontally. To maintain a full anesthetic state in which there is no reaction to a tail or paw pinch, chloral hydrate supplements of 100 mg/kg were given as needed. A burr hole was drilled in the midline, 0.9 to 1.2 mm anterior to interaural zero (Paxinos, G. and Watson, C. (1982); The rat brain in Stereotaxic Coordinates; Academy, Sydney). Dorsal raphe was encountered just below the Sylvius aqueduct, 5.0 to 6.5 mm ventral to dura mater. The dorsal raphe 5-HT neurons, in physiological conditions, were identified according to the following criteria: a slow (0.5-2.5 Hz) and regular firing rate; and a long-duration (0.8-1.2 ms) positive action potential (Baraban and Aghajanian (1980) Neuropharmacology 19, 355-363). Neuronal activity was recorded and processed by a computer connected to CED1401 interface-Spike 2 software (Cambridge Electronic Design, Cambridge, UK).

SMILES: COc1cccc(N(CCNC(C)=O)c2ccccc2)c1 [5b, N-{2-[(3-Methoxyphenyl)-phenylamino]ethyl}acetamide]
- MT2 IAr ± SEM (relative intrinsic activity) [1]: 0.6 and 0.61 ± 0.04
- functional behaviour (maximal stimulation of basal [35S]GTPγS binding lower than melatonin) ([2]; MT1 and MT2): partial agonist
- MT1 IAr ± SEM (relative intrinsic activity) ([2]; maximal net effect relative to MLT): 0.8 and 0.79 ± 0.03
- Latency (sec) to feed ([3]; 5b 40 mg/kg s.c.): 106.75 ± 10.13 (P ≦ 0.001)* sec
- Latency (sec) to feed ([3]; 5b 80 mg/kg s.c.): 115.28 ± 13.89 (P ≦ 0.001)* sec
- latency to feed (FIG. 5) ([3]; 5b 40 and 80 mg/kg, injected 60 min before the test, vs vehicle): decreased latency to feed
- increase of spontaneous activity of 5-HT neurons ([4]; acute single injection 40 mg/kg subcutaneous): 40%
- 5-HT neuron firing rate ([4]; acute single injection 40 mg/kg subcutaneous (control 0.66 Hz)): 0.93 Hz
- increase of spontaneous activity of 5-HT neurons ([4]; acute single injection 80 mg/kg subcutaneous): 106%
- 5-HT neuron firing rate ([4]; acute single injection 80 mg/kg subcutaneous (control 0.66 Hz)): 1.36 Hz
- increase of spontaneous activity of 5-HT neurons ([4]; sub-chronic 40 mg/kg i.p. once a day for 4 days, recorded 24 h after last injection): 133%
- 5-HT neuron mean firing rate ([4]; sub-chronic 40 mg/kg once a day for 4 days, recorded 24 h after last injection (control 1.2 Hz)): 2.8 Hz and 2.80 Hz
